From patent US10543212B2, “Substituted amines for treating cardiac diseases” (Cardurion Pharmaceuticals, LLC, priority 2017, dated 2020)

Target: T1, Full-length, GST-tagged, human CaMKIIδ (Homo sapiens, UniProt Q13557)
T1 construct: Full-Length, Glutathione-S-Transferase(GST)-Tagged, Human CaMKIIδ was purchased from Carna Biosciences; purchased Carna Biosciences 02-111
Test: CaMKIIδ binding assay (TR-FRET with BODIPY-labeled probe ligand)
Conditions: CaMKIIδ binding assay, results of Table 2
Outline: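 Compounds were tested as 4-fold, eight-point series for 1 hr at room temperature, and IC50 was obtained by logistic fitting against a 3 μM parent-compound control. Signal came from displacement of a 300 nM BODIPY ligand from 0.5 nM GST-CaMKIIδ, detected via Tb-anti-GST in calmodulin/Ca2+ (pH 7.6).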

T1 sequence (Q13557 1-478 isoform Q13557-12): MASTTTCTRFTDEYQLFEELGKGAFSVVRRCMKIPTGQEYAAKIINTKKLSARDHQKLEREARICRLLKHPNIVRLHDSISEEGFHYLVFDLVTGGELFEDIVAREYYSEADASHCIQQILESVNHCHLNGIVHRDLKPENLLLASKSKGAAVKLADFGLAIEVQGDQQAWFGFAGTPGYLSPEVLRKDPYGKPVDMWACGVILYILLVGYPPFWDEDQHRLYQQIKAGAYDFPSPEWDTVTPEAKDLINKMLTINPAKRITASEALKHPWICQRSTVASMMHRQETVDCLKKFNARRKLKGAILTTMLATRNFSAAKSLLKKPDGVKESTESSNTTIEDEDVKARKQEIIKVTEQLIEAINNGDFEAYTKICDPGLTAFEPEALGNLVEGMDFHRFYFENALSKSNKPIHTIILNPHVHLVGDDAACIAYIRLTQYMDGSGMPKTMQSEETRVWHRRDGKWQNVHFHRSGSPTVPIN

**Q.** Which IC50 does the source give for `COc1cc2c(cc1Nc1ncc(-c3ccc(Cl)c(O[C@@H](C)Cn4cnnn4)c3)cn1)CN(C1COC1)CCC2` [Example 467, (S)-N-(5-(3-((1-(1H-tetrazol-1-yl)propan-2-yl)oxy)-4-chlorophenyl)pyrimidin-2-yl)-7-methoxy-2-(oxetan-3-yl)-2,3,4,5-tetrahydro-1H-benzo[c]azepin-8-amine] here?
**A.** Its IC50 is 10 to 100 nM.

**Q.** With `COc1cc2c(cc1Nc1ncc(-c3ccc(C#N)c(O[C@@H](C)Cn4cnnn4)c3)cn1)C(=O)N(CC1COC1)C2` [Example 446, (S)-2-((1-(1H-tetrazol-1-yl)propan-2-yl)oxy)-4-(2-((6-methoxy-2-(oxetan-3-ylmethyl)-3-oxoisoindolin-5-yl)amino)pyrimidin-5-yl)benzonitrile] as the compound, how does the IC50 read?
**A.** The IC50 was 10 to 100 nM.

**Q.** `C[C@@H](Cn1cnnn1)Oc1cc(-c2cnc(Nc3cn(C4CCN(Cc5cnn(C)c5)CC4)nc3C(F)(F)F)nc2)ccc1Cl` [Example 567, (S)-5-(3-((1-(1H-tetrazol-1-yl)propan-2-yl)oxy)-4-chlorophenyl)-N-(1-(1-((1-methyl-1H-pyrazol-4-yl)methyl)piperidin-4-yl)-3-(trifluoromethyl)-1H-pyrazol-4-yl)pyrimidin-2-amine] was tested. Which IC50 did it give?
**A.** Its IC50 is less than 10 nM.

**Q.** How did the IC50 turn out when `C[C@@H](Cn1cnnn1)Oc1cc(-c2cnc(Nc3ccc4c(c3)N(C(=O)CCN(C)C)CC4)nc2)ccc1Cl` [Example 437, (S)-1-(6-((5-(3-((1-(1H-tetrazol-1-yl)propan-2-yl)oxy)-4-chlorophenyl)pyrimidin-2-yl)amino)indolin-1-yl)-3-(dimethylamino)propan-1-one] was run?
**A.** The IC50 was less than 10 nM.

Same assay, conditions: CaMKIIδ binding assay; activity class per Table 2

**Q.** `CC(C)c1nn(C2CC3(C2)CN(C2COCCOC2)C3)cc1Nc1ncc(-c2ccc(Cl)c(O[C@@H](C)Cn3cnnn3)c2)cn1` [Example 983, (S)-N-(1-(2-(1,4-dioxepan-6-yl)-2-azaspiro[3.3]heptan-6-yl)-3-isopropyl-1H-pyrazol-4-yl)-5-(3-((1-(1H-tetrazol-1-yl)propan-2-yl)oxy)-4-chlorophenyl)pyrimidin-2-amine] was tested. Which IC50 did it give?
**A.** The IC50 was less than 10 nM.

**Q.** `C[C@@H](Cn1cnnn1)Oc1cc(-c2cnc(Nc3cn(C(C)(C)C(=O)N4CCOCC4)nc3OCC(F)(F)F)nc2)ccc1Cl` [Example 895, (S)-2-(4-((5-(3-((1-(1H-tetrazol-1-yl)propan-2-yl)oxy)-4-chlorophenyl)pyrimidin-2-yl)amino)-3-(2,2,2-trifluoroethoxy)-1H-pyrazol-1-yl)-2-methyl-1-morpholinopropan-1-one] was tested. Which IC50 did it give?
**A.** The IC50 was 10 to 100 nM.

**Q.** How did the IC50 turn out when `C[C@@H](Cn1cnnn1)Oc1cc(-c2cnc(Nc3cn(C4CC5(C4)CN(C4CCOCC4)C5)nc3C(F)(F)C(F)(F)F)nc2)ccc1Cl` [Example 959, (S)-5-(3-((1-(1H-tetrazol-1-yl)propan-2-yl)oxy)-4-chlorophenyl)-N-(3-(perfluoroethyl)-1-(2-(tetrahydro-2H-pyran-4-yl)-2-azaspiro[3.3]heptan-6-yl)-1H-pyrazol-4-yl)pyrimidin-2-amine] was run?
**A.** Its IC50 is less than 10 nM.

**Q.** Which IC50 does the source give for `C[C@@H](Cn1cnnn1)Oc1cc(-c2cnc(Nc3cn(C4(CO)CCC4)nc3OCC(F)(F)F)nc2)ccc1Cl` [Example 914, (S)-(1-(4-((5-(3-((1-(1H-tetrazol-1-yl)propan-2-yl)oxy)-4-chlorophenyl)pyrimidin-2-yl)amino)-3-(2,2,2-trifluoroethoxy)-1H-pyrazol-1-yl)cyclobutyl)methanol] here?
**A.** Its IC50 is less than 10 nM.

Same assay, conditions: Table 2; CaMKIIδ binding assay, activity given as class A/B/C

**Q.** `C[C@@H](Cn1cnnn1)Oc1cc(-c2cnc(Nc3cc(C(C)(C)C)nn3C)nc2)ccc1Cl` [Example 740, (S)-5-(3-((1-(1H-tetrazol-1-yl)propan-2-yl)oxy)-4-chlorophenyl)-N-(3-(tert-butyl)-1-methyl-1H-pyrazol-5-yl)pyrimidin-2-amine] was tested. Which IC50 did it give?
**A.** The IC50 was no less than 100 nM.

**Q.** `C[C@@H](Cn1cnnn1)Oc1cc(-c2cnc(Nc3cn([C@@H](C)CO)nc3OCC(F)(F)F)nc2)ccc1Cl` [Example 775, (S)-2-(4-((5-(3-(((S)-1-(1H-tetrazol-1-yl)propan-2-yl)oxy)-4-chlorophenyl)pyrimidin-2-yl)amino)-3-(2,2,2-trifluoroethoxy)-1H-pyrazol-1-yl)propan-1-ol] was tested. Which IC50 did it give?
**A.** The IC50 was less than 10 nM.

**Q.** For `C[C@@H](Cn1cnnn1)Oc1cc(-c2cnc(Nc3cn([C@H]4CC[C@H](N5CCC(F)(F)C5)CC4)nc3OC3COC3)nc2)ccc1Cl` [Example 864, 5-(3-(((S)-1-(1H-tetrazol-1-yl)propan-2-yl)oxy)-4-chlorophenyl)-N-(1-(trans-4-(3,3-difluoropyrrolidin-1-yl)cyclohexyl)-3-(oxetan-3-yloxy)-1H-pyrazol-4-yl)pyrimidin-2-amine], which IC50 is on record?
**A.** Its IC50 is less than 10 nM.

**Q.** Which IC50 does the source give for `C[C@@H](CO)Cn1cc(Nc2ncc(-c3ccc(Cl)c(O[C@@H](C)Cn4cnnn4)c3)cn2)c(OCC(F)(F)F)n1` [Example 784, (R)-3-(4-((5-(3-(((S)-1-(1H-tetrazol-1-yl)propan-2-yl)oxy)-4-chlorophenyl)pyrimidin-2-yl)amino)-3-(2,2,2-trifluoroethoxy)-1H-pyrazol-1-yl)-2-methylpropan-1-ol] here?
**A.** The IC50 was less than 10 nM.

**Q.** For `Cc1ccc(-c2cnc(Nc3cn([C@H]4CC[C@@H](N5CCOCC5)CC4)nc3C(F)(F)F)nc2)cc1O[C@@H](C)Cn1cnnn1` [Example 809, 5-(3-(((S)-1-(1H-tetrazol-1-yl)propan-2-yl)oxy)-4-methylphenyl)-N-(1-(cis-4-morpholinocyclohexyl)-3-(trifluoromethyl)-1H-pyrazol-4-yl)pyrimidin-2-amine], which IC50 is on record?
**A.** The IC50 was 10 to 100 nM.

**Q.** With `C[C@@H](Cn1cnnn1)Oc1cc(-c2cnc(Nc3cn(C4CCN(C5CCC5)CC4)nc3OCCF)nc2)ccc1Cl` [Example 826, (S)-5-(3-((1-(1H-tetrazol-1-yl)propan-2-yl)oxy)-4-chlorophenyl)-N-(1-(1-cyclobutylpiperidin-4-yl)-3-(2-fluoroethoxy)-1H-pyrazol-4-yl)pyrimidin-2-amine] as the compound, how does the IC50 read?
**A.** Its IC50 is less than 10 nM.

**Q.** With `C[C@@H](Cn1cnnn1)Oc1cc(-c2cnc(Nc3cn([C@H]4CC[C@@H](N5CC6(COC6)C5)CC4)nc3OCC(F)F)nc2)ccc1Cl` [Example 828, 5-(3-(((S)-1-(1H-tetrazol-1-yl)propan-2-yl)oxy)-4-chlorophenyl)-N-(1-(cis-4-(2-oxa-6-azaspiro[3.3]heptan-6-yl)cyclohexyl)-3-(2,2-difluoroethoxy)-1H-pyrazol-4-yl)pyrimidin-2-amine] as the compound, how does the IC50 read?
**A.** The IC50 was less than 10 nM.

**Q.** Which IC50 does the source give for `C[C@@H](Cn1cnnn1)Oc1cc(-c2cnc(Nc3cn([C@H]4CC[C@@H](N5CCOCC5)CC4)nc3OCC(F)(F)F)nc2)ccc1Cl` [Example 780, 5-(3-(((S)-1-(1H-tetrazol-1-yl)propan-2-yl)oxy)-4-chlorophenyl)-N-(1-(cis-4-morpholinocyclohexyl)-3-(2,2,2-trifluoroethoxy)-1H-pyrazol-4-yl)pyrimidin-2-amine] here?
**A.** The IC50 was less than 10 nM.

Same assay, conditions: Table 2; activity class for CaMKIIδ

**Q.** For `C[C@@H](CO)Cn1cc(Nc2ncc(-c3ccc(Cl)c(O[C@@H](C)Cn4cnnn4)c3)cn2)c(C(F)(F)F)n1` [Example 730, (R)-3-(4-((5-(3-(((S)-1-(1H-tetrazol-1-yl)propan-2-yl)oxy)-4-chlorophenyl)pyrimidin-2-yl)amino)-3-(trifluoromethyl)-1H-pyrazol-1-yl)-2-methylpropan-1-ol], which IC50 is on record?
**A.** Its IC50 is 10 to 100 nM.

**Q.** Which IC50 does the source give for `COc1cc2c(cc1Nc1ncc(-c3ccc(C#N)c(O[C@@H](C)Cn4cnnn4)c3)cn1)NCCC2` [Example 590, (S)-2-((1-(1H-tetrazol-1-yl)propan-2-yl)oxy)-4-(2-((6-methoxy-1,2,3,4-tetrahydroquinolin-7-yl)amino)pyrimidin-5-yl)benzonitrile] here?
**A.** The IC50 was less than 10 nM.

**Q.** For `COc1nc(N2CCCNCC2)ccc1Nc1ncc(-c2ccc(Cl)c(O[C@@H](C)Cn3cnnn3)c2)cn1` [Example 666, (S)-N-(6-(1,4-diazepan-1-yl)-2-methoxypyridin-3-yl)-5-(3-((1-(1H-tetrazol-1-yl)propan-2-yl)oxy)-4-chlorophenyl)pyrimidin-2-amine], which IC50 is on record?
**A.** Its IC50 is less than 10 nM.

**Q.** With `COc1ccc(N2CCN(C)CC2)cc1Nc1ncc(-c2ccc(Cl)c(O[C@@H](C)Cn3cnnn3)c2)cn1` [Example 584, (S)-5-(3-((1-(1H-tetrazol-1-yl)propan-2-yl)oxy)-4-chlorophenyl)-N-(2-methoxy-5-(4-methylpiperazin-1-yl)phenyl)pyrimidin-2-amine] as the compound, how does the IC50 read?
**A.** Its IC50 is less than 10 nM.

**Q.** With `COc1nc(N2CCN(C3CCOC3)CC2)ccc1Nc1ncc(-c2ccc(Cl)c(O[C@@H](C)Cn3cnnn3)c2)cn1` (stereo partly drawn) [Example 640, 5-(3-(((S)-1-(1H-tetrazol-1-yl)propan-2-yl)oxy)-4-chlorophenyl)-N-(2-methoxy-6-(4-(tetrahydrofuran-3-yl)piperazin-1-yl)pyridin-3-yl)pyrimidin-2-amine] as the compound, how does the IC50 read?
**A.** Its IC50 is 10 to 100 nM.

**Q.** With `COc1ccc(C(=O)N2CCCN(CCO)CC2)cc1Nc1ncc(-c2ccc(Cl)c(O[C@@H](C)Cn3cnnn3)c2)cn1` [Example 588, (S)-(3-((5-(3-((1-(1H-tetrazol-1-yl)propan-2-yl)oxy)-4-chlorophenyl)pyrimidin-2-yl)amino)-4-methoxyphenyl) (4-(2-hydroxyethyl)-1,4-diazepan-1-yl)methanone] as the compound, how does the IC50 read?
**A.** Its IC50 is less than 10 nM.

**Q.** Which IC50 does the source give for `C[C@@H](Cn1cnnn1)Oc1cc(-c2cnc(Nc3cn(C4CCC(C(=O)O)CC4)nc3C(F)(F)F)nc2)ccc1Cl` (stereo partly drawn) [Example 604, (S)-4-(4-((5-(3-((1-(1H-tetrazol-1-yl)propan-2-yl)oxy)-4-chlorophenyl)pyrimidin-2-yl)amino)-3-(trifluoromethyl)-1H-pyrazol-1-yl)cyclohexane-1-carboxylic acid] here?
**A.** The IC50 was 10 to 100 nM.

**Q.** With `COc1cc(N2CCN(C3CCOC3)CC2)ncc1Nc1ncc(-c2ccc(Cl)c(O[C@@H](C)Cn3cnnn3)c2)cn1` (stereo partly drawn) [Example 651, 5-(3-(((S)-1-(1H-tetrazol-1-yl)propan-2-yl)oxy)-4-chlorophenyl)-N-(4-methoxy-6-(4-(tetrahydrofuran-3-yl)piperazin-1-yl)pyridin-3-yl)pyrimidin-2-amine] as the compound, how does the IC50 read?
**A.** Its IC50 is 10 to 100 nM.

**Q.** How did the IC50 turn out when `C[C@@H](Cn1cnnn1)Oc1cc(-c2cnc(Nc3cn(CC(=O)Nc4ccccc4)nc3C(F)(F)F)nc2)ccc1Cl` [Example 617, (S)-2-(4-((5-(3-((1-(1H-tetrazol-1-yl)propan-2-yl)oxy)-4-chlorophenyl)pyrimidin-2-yl)amino)-3-(trifluoromethyl)-1H-pyrazol-1-yl)-N-phenylacetamide] was run?
**A.** Its IC50 is 10 to 100 nM.
